Results as given in US20220304907A1, “Oral Care Compositions” (Colgate-Palmolive Company, priority 2019, published 2022).

Tested on: LL-37
Test: LL-37 expression (qPCR) in OKF6 gingival epithelial cells after overnight treatment
Type: cell-based
Settings: topical application to gingival epithelial cells (GEC)
Experimental: OKF6 Cells (Gingival epithelial cells) were grown in 6 well tissue culture plates. Cells monolayer was treated with indicated doses (FIG. 1) of Vitamin D3 or phenylbutyrate alone or in combinations of two and cells were further incubated in tissue culture incubator for overnight incubation. After overnight incubation, cells were harvested in RNA lysis buffer. Lysates were processed for RNA isolation using Qiagen RNA isolation kit. RNA was processed for c-DNA preparation and further amplified (qPCR) using LL-37 (Hs 01011708_m1), Cyp24A1 (Hs00989018_m1), GAPDH (Hs 99999905_m1) Taqman genes specific probes. QPCR data was analyzed for fold induction of LL-37 expression and relative difference of expressions was plotted. […] As illustrated by the data described in FIGS. 1 and 2, the inventive combinations of the present invention provide a synergistic increase in LL-37 and CYP24A1, respectively.

In the case of `C=C1/C(=C\C=C2/CCC[C@]3(C)[C@@H]([C@H](C)CCCC(C)(C)O)CC[C@@H]23)C[C@@H](O)C[C@@H]1O` [1,25(OH)2D3, 1,25-dihydroxycholecalciferol], the “expression of anti-microbial peptide (LL-37) proteins” value is reported as “enhanced expression”.
